Drawing on PubChem BioAssay (NCI), this text covers TGI for 16 molecules.

Molecules are shown by their SMILES.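 Where inhibition never reached the appropriate level, the endpoint shown equals the highest concentration tested. Otherwise, values were interpolated linearly from a five-concentration, 48-hour dose response in 96-well plates. TGI is the concentration that stops growth completely.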

Among the test systems are HCT-116 colon; MOLT-4 leukemia; NCI-H460 lung; SK-MEL-28 melanoma; SK-MEL-5 melanoma; SN12C renal; SNB-19 CNS; U251 CNS; DU-145 prostate; BT-549 breast.
Common to all, as to experiment: inhibition of tumour cell growth, NCI panel, 48 h

On to `COc1cc(/C=C/c2ccc(Br)cc2)cc(OC)c1OC`, for which the TGI in the assay with HCT-116 colon amounted to 17.1 µM; with MOLT-4 leukemia, 15.6 µM; in the assay with NCI-H460 lung, 49.4 µM; with SK-MEL-28 melanoma, 48 µM; in the assay on SK-MEL-5 melanoma it was 20.4 µM; with SN12C renal, 71.8 µM. Besides, the TGI in the assay on SNB-19 CNS is above 100 µM; in the assay with U251 CNS it was 30.7 µM.
Take `COC(=O)C1(C)CC2C(C)(CCC3(C)C4=CC=C5C(=CC(=O)C(O)=C5C)C4(C)CCC23C)CC1O` (configuration not stated): the TGI is 2.71 µM with DU-145 prostate; 1.89 µM in the assay with HCT-116 colon; 0.931 µM with MOLT-4 leukemia; 2.1 µM with SK-MEL-28 melanoma; 3.28 µM in the assay with SK-MEL-5 melanoma; 3.33 µM with SN12C renal. In the assay on SNB-19 CNS, this molecule returned a TGI of 2.81 µM.
Take `COc1ccc(S(=O)(=O)N[C@H](C(=O)O)c2ccccc2)cc1`: the TGI in the assay with HCT-116 colon, with MOLT-4 leukemia, with NCI-H460 lung, in the assay on SK-MEL-28 melanoma, with SK-MEL-5 melanoma and in the assay with SN12C renal was above 100 µM throughout. For the same molecule, the TGI in the assay on SNB-19 CNS and in the assay with U251 CNS was above 100 µM in each case.
As to `CCOC(=O)C(NO)C(Sc1ccccc1)c1ccc(OC)cc1` (configuration not stated), the TGI in the assay with HCT-116 colon, with MOLT-4 leukemia, in the assay on NCI-H460 lung, in the assay on SK-MEL-28 melanoma, in the assay on SK-MEL-5 melanoma and in the assay with SN12C renal was above 100 µM in each case. Further, the TGI with SNB-19 CNS and in the assay on U251 CNS was above 100 µM in each case.
Take `CCN(CC)CC(=O)NC1c2ccccc2Oc2c(C)cccc21` (configuration not stated): the TGI in the assay on HCT-116 colon, in the assay with MOLT-4 leukemia, in the assay with NCI-H460 lung, in the assay with SK-MEL-28 melanoma, with SK-MEL-5 melanoma and in the assay on SN12C renal was above 100 µM each time. For the same molecule, in the assay on SNB-19 CNS, the TGI is above 100 µM.
Turning to `COc1ccc2c(c1)[n+](=O)c(C(=O)C/C(=N/NC(=O)C[N+](C)(C)C)C(=O)Nc1cccc(C)c1C)c(C)n2O`, the TGI in the assay on HCT-116 colon, in the assay with NCI-H460 lung, in the assay with SK-MEL-28 melanoma, with SN12C renal, in the assay on SNB-19 CNS and in the assay on U251 CNS was above 100 µM in each case.
For the molecule `COC(=O)C1C(=O)O[C@@H](c2ccc(OC)c(OC)c2OC)C1C(=O)OC` (mixture of isomers), the TGI with HCT-116 colon, in the assay on MOLT-4 leukemia, with NCI-H460 lung, in the assay on SK-MEL-28 melanoma, with SK-MEL-5 melanoma and in the assay with SN12C renal was above 100 µM in each case. The TGI in the assay with SNB-19 CNS and with U251 CNS was above 100 µM each time.
For `O=S(=O)(c1ccccc1)N1CN2CN(C1)CN(S(=O)(=O)c1ccccc1)C2`, the TGI in the assay on BT-549 breast, with DU-145 prostate, with HCT-116 colon, with NCI-H460 lung, in the assay on SK-MEL-28 melanoma and in the assay on SK-MEL-5 melanoma was above 100 µM throughout. The TGI with SN12C renal, in the assay with SNB-19 CNS and with U251 CNS was above 100 µM in each case.
Regarding `CC(=O)Nc1ccc(/C=C2\N=C(c3ccccc3)OC2=O)cc1`, the TGI in the assay with HCT-116 colon, in the assay with MOLT-4 leukemia, in the assay with NCI-H460 lung, in the assay with SK-MEL-28 melanoma, with SK-MEL-5 melanoma and in the assay on SN12C renal was above 100 µM throughout. The TGI with SNB-19 CNS and with U251 CNS was above 100 µM each time.
As to `COc1cc(-c2ccc(NC(=O)SCCC(=O)O)cc2OC)ccc1NC(=O)SCCC(=O)O`, the TGI in the assay on HCT-116 colon, in the assay on MOLT-4 leukemia, in the assay with NCI-H460 lung, in the assay with SK-MEL-28 melanoma, in the assay with SK-MEL-5 melanoma and in the assay on SN12C renal was above 100 µM throughout. Further, the TGI in the assay with SNB-19 CNS and in the assay with U251 CNS was above 100 µM in each case.
Take `COC1[C@H](NC(=O)OC(C)(C)C)C(=O)N1Cc1ccccc1` (some centres not stated): the TGI with HCT-116 colon, in the assay with MOLT-4 leukemia, in the assay on NCI-H460 lung, in the assay on SK-MEL-28 melanoma, with SK-MEL-5 melanoma and in the assay on SN12C renal was above 100 µM each time. The TGI in the assay on SNB-19 CNS and in the assay with U251 CNS was above 100 µM in each case.
Turning to `COC1OC(CBr)C(OC(=O)c2ccccc2)C(OS(=O)(=O)c2ccc(C)cc2)C1Br` (configuration not stated), the TGI in the assay with HCT-116 colon, with MOLT-4 leukemia, in the assay with NCI-H460 lung, with SK-MEL-28 melanoma, in the assay with SN12C renal and in the assay with SNB-19 CNS was above 100 µM throughout. For the same molecule, the TGI in the assay with U251 CNS was above 100 µM.
Take `CC1CCC(=O)C(C(O)CC2CC(=O)N(c3ccccc3)C(=O)C2)C1` (configuration not stated): the TGI with HCT-116 colon, in the assay with MOLT-4 leukemia, in the assay on NCI-H460 lung, with SK-MEL-28 melanoma, in the assay on SN12C renal and in the assay on SNB-19 CNS was above 100 µM throughout. In addition, the TGI with U251 CNS was above 100 µM.
`O=C1C2c3[nH]c4ccccc4c3C3CCCCCC3C2C(=O)N1c1ccccc1` (configuration not stated): the TGI in the assay with HCT-116 colon was 62.7 µM; in the assay on MOLT-4 leukemia, 47.7 µM; in the assay with NCI-H460 lung it was above 77.4 µM; with SK-MEL-28 melanoma, 97.7 µM; in the assay with SK-MEL-5 melanoma it was above 100 µM; in the assay with SN12C renal, above 36.5 µM. Also, the TGI was above 74.1 µM in the assay on SNB-19 CNS and above 45.6 µM with U251 CNS.
Take `COc1ccc(-c2ccccc2)c2[nH]c3c(c12)CCNC3=O`: the TGI in the assay on HCT-116 colon, with MOLT-4 leukemia, in the assay on NCI-H460 lung, in the assay with SK-MEL-5 melanoma, in the assay with SN12C renal and with SNB-19 CNS was above 100 µM each time. This molecule displayed a TGI in the assay on U251 CNS above 100 µM.
As for `CC1=C(C(=O)NCc2ccccc2)C(c2ccccc2C)C(C(=O)NCc2ccccc2)=C(C)N1`, the TGI with HCT-116 colon was 37.6 µM; in the assay with MOLT-4 leukemia, above 100 µM; in the assay with NCI-H460 lung, 45.9 µM; in the assay on SK-MEL-28 melanoma, above 67.3 µM; with SK-MEL-5 melanoma, above 100 µM; in the assay with SN12C renal, above 63 µM. The TGI is above 100 µM in the assay on SNB-19 CNS and 68.3 µM in the assay with U251 CNS.
